Assays:
F35T cells = test: Foci reduction in FECD (CAG10-Cy3 FISH, foci per nucleus); assay type: cell-based; details: F35T cells, 48 h treatment, foci per nucleus; read-out: FECD EC50, 48 h
Method in brief: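 F35T cells, 5000 per well, were treated for 48 h at 37 °C, 5% CO2 in an 8-point dose response. Cells were then fixed in 4% PFA, permeabilized in 70% ethanol and hybridized overnight at 37 °C with a CAG10-Cy3 probe in 30% formamide/2×SSC. After DAPI staining, imaging gave foci per nucleus.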

[1] = tested on: Myotonic Dystrophy 1 affected patient fibroblasts (Coriel GM04602; 1600 CTG repeats); test: DM1 foci reduction assay (EC50 assay; CAG10-Cy3 FISH, foci per nucleus); assay type: cell-based; details: Homo sapiens, Fibroblast; DM1 patient fibroblasts, 48 h treatment, foci per nucleus; read-out: DM1 EC50, 48 h
Method in brief: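 GM04602 DM1 patient fibroblasts (1600 CTG repeats) seeded 24 h, then treated 48 h at 37 °C with an 8-point 1:3 dose series from 3 μM. Cells PFA-fixed, ethanol-permeabilized and hybridized overnight with 5 nM CAG10-Cy3 probe, DAPI counterstained. Imaged at 20×, 4 fields per well, as average foci per nucleus.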

SMILES	EC50 (F35T cells) [nM]	EC50 [1] [nM]
CCCNC(=O)CCNC(=O)c1nc(NC(=O)c2cc(NC(=O)CCNC(=O)c3nc(NC(=O)CCCNC(=O)c4cc(NC(=O)c5nc(NC(=O)CCNC(=O)c6cc(NC(=O)c7nccn7C)cn6C)cn5C)cn4CCCCNC(C)=O)cn3C)cn2C)cn1C [Compound B-282]	< 100	100 to 500
CC(=O)NCCCCn1cc(NC(=O)c2nc(NC(=O)CCNC(=O)c3cc(NC(=O)c4nccn4C)cn3C)cn2C)cc1C(=O)NCCCC(=O)Nc1cn(C)c(C(=O)NCCC(=O)Nc2cc(C(=O)Nc3cn(C)c(C(=O)NCCC(=O)N4CCC(C#CC#CC5CCN(C(C)=O)CC5)CC4)n3)n(C)c2)n1 [Compound B-283]	< 100	500 to 1000
CC(=O)NCCCCn1cc(NC(=O)c2nc(NC(=O)CCNC(=O)c3cc(NC(=O)c4nccn4C)cn3C)cn2C)cc1C(=O)NCCCC(=O)Nc1cn(C)c(C(=O)NCCC(=O)Nc2cc(C(=O)Nc3cn(C)c(C(=O)NCCC(=O)N4CCC(C#CC#CC5CCNCC5)CC4)n3)n(C)c2)n1 [Compound B-284]	< 100	< 100
CCCNC(=O)CCNC(=O)c1nc(NC(=O)c2cc(NC(=O)CCNC(=O)c3nc(NC(=O)CCCNC(=O)c4cc(NC(=O)c5nc(NC(=O)CCNC(=O)c6cc(NC(=O)c7nccn7C)cn6C)cn5C)cn4CCCCCN=[N+]=[N-])cn3C)cn2C)cn1C [Compound B-285]	< 100	< 100
CCCNC(=O)CCNC(=O)c1nc(NC(=O)c2cc(NC(=O)CCNC(=O)c3nc(NC(=O)CCCNC(=O)c4cc(NC(=O)c5nc(NC(=O)CCNC(=O)c6cc(NC(=O)c7nccn7C)cn6C)cn5C)cn4CCCCCN)cn3C)cn2C)cn1C [Compound B-286]	< 100	100 to 500
CC(=O)NCCCCCCn1cc(NC(=O)c2nc(NC(=O)CCNC(=O)c3cc(NC(=O)c4nccn4C)cn3C)cn2C)cc1C(=O)NCCCC(=O)Nc1cn(C)c(C(=O)NCCC(=O)Nc2cc(C(=O)Nc3cn(C)c(C(=O)NCCC(=O)N4CCC(C#CC#CC5CCN(C(C)=O)CC5)CC4)n3)n(C)c2)n1 [Compound B-293]	100 to 500	500 to 1000
CCCNC(=O)CCNC(=O)c1nc(NC(=O)c2cc(NC(=O)CCNC(=O)c3nc(NC(=O)CCCNC(=O)c4cc(NC(=O)c5nc(NC(=O)CCNC(=O)c6cc(NC(=O)c7nccn7C)cn6C)cn5C)cn4CCOCCN)cn3C)cn2C)cn1C [Compound B-295]	100 to 500	100 to 500
CC(=O)N1CCC(C#CC#CC2CCN(C(=O)CCNC(=O)c3nc(NC(=O)c4cc(NC(=O)CCNC(=O)c5nc(NC(=O)CCCNC(=O)c6cc(NC(=O)c7nc(NC(=O)CCNC(=O)c8cc(NC(=O)c9nccn9C)cn8C)cn7C)cn6CCOCCN)cn5C)cn4C)cn3C)CC2)CC1 [Compound B-296]	< 100	< 100
Cn1cc(NC(=O)c2nccn2C)cc1C(=O)NCCC(=O)Nc1cn(C)c(C(=O)Nc2cc(C(=O)NCCCC(=O)Nc3cn(C)c(C(=O)NCCC(=O)Nc4cc(C(=O)Nc5cn(C)c(C(=O)NCCC(=O)N6CCC(C#CC#CC7CCNCC7)CC6)n5)n(C)c4)n3)n(CCOCCN)c2)n1 [Compound B-297]	100 to 500	> 1000
CCCNC(=O)CCNC(=O)c1nc(NC(=O)c2cc(NC(=O)CCNC(=O)c3nc(NC(=O)CCCNC(=O)c4cc(NC(=O)c5nc(NC(=O)CCNC(=O)c6cc(NC(=O)c7nccn7C)cn6C)cn5C)cn4CCOCCNC(C)=O)cn3C)cn2C)cn1C [Compound B-298]	100 to 500	100 to 500
CC(=O)NCCOCCn1cc(NC(=O)c2nc(NC(=O)CCNC(=O)c3cc(NC(=O)c4nccn4C)cn3C)cn2C)cc1C(=O)NCCCC(=O)Nc1cn(C)c(C(=O)NCCC(=O)Nc2cc(C(=O)Nc3cn(C)c(C(=O)NCCC(=O)N4CCC(C#CC#CC5CCN(C(C)=O)CC5)CC4)n3)n(C)c2)n1 [Compound B-299]	< 100	100 to 500
CC(=O)NCCOCCn1cc(NC(=O)c2nc(NC(=O)CCNC(=O)c3cc(NC(=O)c4nccn4C)cn3C)cn2C)cc1C(=O)NCCCC(=O)Nc1cn(C)c(C(=O)NCCC(=O)Nc2cc(C(=O)Nc3cn(C)c(C(=O)NCCC(=O)N4CCC(C#CC#CC5CCNCC5)CC4)n3)n(C)c2)n1 [Compound B-300]	< 100	< 100
CCCNC(=O)CCNC(=O)c1nc(NC(=O)c2cc(NC(=O)CCNC(=O)c3nc(NC(=O)CCCNC(=O)c4cc(NC(=O)c5nc(NC(=O)CCNC(=O)c6cc(NC(=O)c7nccn7C)cn6C)cn5C)cn4CCCOCCN)cn3C)cn2C)cn1C [Compound B-301]	< 100	100 to 500
CC(=O)N1CCC(C#CC#CC2CCN(C(=O)CCNC(=O)c3nc(NC(=O)c4cc(NC(=O)CCNC(=O)c5nc(NC(=O)CCCNC(=O)c6cc(NC(=O)c7nc(NC(=O)CCNC(=O)c8cc(NC(=O)c9nccn9C)cn8C)cn7C)cn6CCCOCCN)cn5C)cn4C)cn3C)CC2)CC1 [Compound B-302]	< 100	< 100
Cn1cc(NC(=O)c2nccn2C)cc1C(=O)NCCC(=O)Nc1cn(C)c(C(=O)Nc2cc(C(=O)NCCCC(=O)Nc3cn(C)c(C(=O)NCCC(=O)Nc4cc(C(=O)Nc5cn(C)c(C(=O)NCCC(=O)N6CCC(C#CC#CC7CCNCC7)CC6)n5)n(C)c4)n3)n(CCCOCCN)c2)n1 [Compound B-303]	100 to 500	500 to 1000
CCCNC(=O)CCNC(=O)c1nc(NC(=O)c2cc(NC(=O)CCNC(=O)c3nc(NC(=O)CCCNC(=O)c4cc(NC(=O)c5nc(NC(=O)CCNC(=O)c6cc(NC(=O)c7nccn7C)cn6C)cn5C)cn4CCCOCCNC(C)=O)cn3C)cn2C)cn1C [Compound B-304]	< 100	< 100
CC(=O)NCCOCCCn1cc(NC(=O)c2nc(NC(=O)CCNC(=O)c3cc(NC(=O)c4nccn4C)cn3C)cn2C)cc1C(=O)NCCCC(=O)Nc1cn(C)c(C(=O)NCCC(=O)Nc2cc(C(=O)Nc3cn(C)c(C(=O)NCCC(=O)N4CCC(C#CC#CC5CCN(C(C)=O)CC5)CC4)n3)n(C)c2)n1 [Compound B-305]	< 100	100 to 500
CC(=O)NCCOCCCn1cc(NC(=O)c2nc(NC(=O)CCNC(=O)c3cc(NC(=O)c4nccn4C)cn3C)cn2C)cc1C(=O)NCCCC(=O)Nc1cn(C)c(C(=O)NCCC(=O)Nc2cc(C(=O)Nc3cn(C)c(C(=O)NCCC(=O)N4CCC(C#CC#CC5CCNCC5)CC4)n3)n(C)c2)n1 [Compound B-306]	< 100	< 100
Cn1cc(NC(=O)c2nc(NC(=O)CCNC(=O)c3cc(NC(=O)c4nccn4C)cn3C)cn2C)cc1C(=O)NCCCC(=O)Nc1cn(C)c(C(=O)NCCC(=O)Nc2cc(C(=O)Nc3cn(C)c(C(=O)NCCC(N)=O)n3)n(C)c2)n1 [Compound B-307]	< 100	100 to 500
Cn1cc(NC(=O)c2nc(NC(=O)CCNC(=O)c3cc(NC(=O)c4nccn4C)cn3C)cn2C)cc1C(=O)NCCCC(=O)Nc1cn(C)c(C(=O)NCCC(=O)Nc2cc(C(=O)Nc3cn(C)c(C(N)=O)n3)n(C)c2)n1 [Compound B-308]	< 100	100 to 500
CNC(=O)CCNC(=O)c1nc(NC(=O)c2cc(NC(=O)CCNC(=O)c3nc(NC(=O)CCCNC(=O)c4cc(NC(=O)c5nc(NC(=O)CCNC(=O)c6cc(NC(=O)c7nccn7C)cn6C)cn5C)cn4C)cn3C)cn2C)cn1C [Compound B-309]	< 100	500 to 1000
CNC(=O)c1nc(NC(=O)c2cc(NC(=O)CCNC(=O)c3nc(NC(=O)CCCNC(=O)c4cc(NC(=O)c5nc(NC(=O)CCNC(=O)c6cc(NC(=O)c7nccn7C)cn6C)cn5C)cn4C)cn3C)cn2C)cn1C [Compound B-310]	< 100	< 100
CCNC(=O)CCNC(=O)c1nc(NC(=O)c2cc(NC(=O)CCNC(=O)c3nc(NC(=O)CCCNC(=O)c4cc(NC(=O)c5nc(NC(=O)CCNC(=O)c6cc(NC(=O)c7nccn7C)cn6C)cn5C)cn4C)cn3C)cn2C)cn1C [Compound B-311]	< 100	100 to 500
CCNC(=O)c1nc(NC(=O)c2cc(NC(=O)CCNC(=O)c3nc(NC(=O)CCCNC(=O)c4cc(NC(=O)c5nc(NC(=O)CCNC(=O)c6cc(NC(=O)c7nccn7C)cn6C)cn5C)cn4C)cn3C)cn2C)cn1C [Compound B-312]	< 100	< 100
CN(C)C(=O)CCNC(=O)c1nc(NC(=O)c2cc(NC(=O)CCNC(=O)c3nc(NC(=O)CCCNC(=O)c4cc(NC(=O)c5nc(NC(=O)CCNC(=O)c6cc(NC(=O)c7nccn7C)cn6C)cn5C)cn4C)cn3C)cn2C)cn1C [Compound B-313]	< 100	< 100
CCCNC(=O)CCNC(=O)c1nc(NC(=O)c2cc(NC(=O)CCNC(=O)c3nc(NC(=O)CCNC(=O)c4cc(NC(=O)c5nc(NC(=O)CCNC(=O)c6cc(NC(=O)c7nccn7C)cn6C)cn5C)cn4C)cn3C)cn2C)cn1C [Compound B-315]	> 1000	> 1000
CCCNC(=O)CCNC(=O)c1nc(NC(=O)c2cc(NC(=O)CCNC(=O)c3nc(NC(=O)CCCNC(=O)c4cc(NC(=O)c5nc(NC(=O)CCNC(=O)c6cc(NC(=O)c7nccn7C)cn6C)cn5C)cn4CC)cn3C)cn2C)cn1C [Compound B-318]	< 100	100 to 500
CCCNC(=O)CCNC(=O)c1nc(NC(=O)c2cc(NC(=O)CCNC(=O)c3nc(NC(=O)CCCNC(=O)c4cc(NC(=O)c5nc(NC(=O)CCNC(=O)c6cc(NC(=O)c7nccn7C)cn6C)cn5C)cn4C(C)C)cn3C)cn2C)cn1C [Compound B-319]	< 100	100 to 500
CCCNC(=O)CCNC(=O)c1nc(NC(=O)c2cc(NC(=O)CCNC(=O)c3nc(NC(=O)CCCNC(=O)c4cc(NC(=O)c5nc(NC(=O)CCNC(=O)c6cc(NC(=O)c7nccn7C)cn6C)cn5C)cn4CCC)cn3C)cn2C)cn1C [Compound B-320]	< 100	< 100
CCCCn1cc(NC(=O)c2nc(NC(=O)CCNC(=O)c3cc(NC(=O)c4nccn4C)cn3C)cn2C)cc1C(=O)NCCCC(=O)Nc1cn(C)c(C(=O)NCCC(=O)Nc2cc(C(=O)Nc3cn(C)c(C(=O)NCCC(=O)NCCC)n3)n(C)c2)n1 [Compound B-321]	< 100	< 100

Reference: patent publication US20250368628A1, “METHODS AND COMPOUNDS FOR MODULATING INHERITED GENETIC DISEASES” (Design Therapeutics, Inc., priority 2022, published 2025)
